Reference: patent US20260216344A1, “ALC1 Inhibitors and Synergy with PARPi” (Eisbach Bio GmbH, priority 2020, published 2026)
Entries after “also recorded” stand apart in the source; their conditions may differ.

System: PARP2
Experiment: live-cell PARP-2 trapping assay (GFP-PARP2 at laser micro-irradiation sites)
Assay type: cell-based, human
Conditions: U2OS cells transfected with GFP-PARP2; veliparib 10 μM, talazoparib 100 nM; images 1 and 15 minutes after irradiation
Procedure: U2OS cells were seeded onto 4-well Nunc Lab-Tek chambers (Thermo Fisher Scientific) in normal DMEM. Cells were cultured over night at 37° C. and transfected with a GFP-tagged PARP2 plasmid using Lipofectamine. 24 h after transfection, the cells were imaged using the Zeiss AxioObserver Z1 confocal spinning-disk microscope equipped with a sCMOS ORCA Flash 4.0 camera (Hamamatsu). Live-cell imaging experiments were performed with C-Apo 63× water immersion objective lens. During this time, the cells were maintained in Leibovitz's L-15 media (Gibco), supplemented with 10% FBS, at 37° C. in the absence of CO2. […] DNA damage was induced along a line of 88 pixels that is exposed for 400 msec with 20% laser power of a 355 nm laser operated through a single-point scanning head (UGA-42 firefly, Rapp OptoElectronics).
The accumulation of fluorophore-tagged proteins at laser micro-irradiation sites was followed for 15-30 minutes. […] The accumulation of fluorophore-tagged proteins at micro-irradiation sites was quantified using a custom-made macro in Fiji/ImageJ. The damage region of interest was selected, the mean fluorescent intensity of the nucleus was determined, and the background signal was subtracted. The recruitment was calculated via the following formula: (damage region (t)−background signal (t))/(nucleus intensity (t)−background (t))

Compound	recruitment / retention of GFP-PARP2 at laser micro-irradiation damage sites
Cn1ncnc1[C@H]1c2n[nH]c(=O)c3cc(F)cc(c23)N[C@@H]1c1ccc(F)cc1 [talazoparib]	enhanced retention of GFP-tagged PARP2 at induced DNA lesions; also recorded: enhanced retention of PARP2 at induced damage sites
C[C@]1(c2nc3c(C(N)=O)cccc3[nH]2)CCCN1 [veliparib]	overall less PARP2 recruitment to the DNA lesions; also recorded: less recruitment of PARP2 to the damage site
